Key:
normal rat striatum = test: Convection-enhanced delivery; assay type: in vivo; details: CED, 20 μl, DOX 0.2 mg/ml, Sprague Dawley rats, a week after infusion
[1] = after injection of free DOX; cited from earlier work

COc1cccc2c1C(=O)c1c(O)c3c(c(O)c1C2=O)C[C@@](O)(C(=O)CO)C[C@@H]3O[C@H]1C[C@H](N)[C@H](O)[C@H](C)O1 [free DOX, doxorubicin]
toxicity to brain tissue (H&E staining) (normal rat striatum): significant tissue damage
clearance time from blood circulation [1]: tens of minutes
